Where two headings read alike, the source gives them in different places.

The target in series [1] is T1, VBC / BRD4^BD1 ternary complex (Homo sapiens, UniProt O60885+P40337).
T1 construct: VHL (54-213), ElonginB (17-112) ElonginC (1-104); BRD4 (44-168); His6 (N, cleaved yes); made in house
Nature of the series: SPR ternary complex binding, VBC surface with preformed PROTAC/BRD4 BD1 complex. The following applies: for Kd: SPR, VHL, PROTAC, error SEM, N = 3, read-out: KLPT (ternary complex binding affinity). How it is done:
(§1) SPR experiments were performed on a Biacore 8 K or T200 instrument (Cytiva). […] The running buffer during immobilization was PBS with 0.005% P20. Either high-density (3000-4000 RU) or low-density (300-400 RU) VBC-functionalized surfaces were created, followed by equilibration in the running buffer for 3 h.
(§2) PROTACs (10 mM in 100% DMSO) were initially prepared at 200 nM in a running buffer (20 mM Tris pH 8.0, 250 mM NaCl, 1 mM TCEP, 0.01% P20, 0.2 mg/ml BSA) with a concentration of 2% DMSO. This solution was mixed at 1:1 ratio with a solution of 5 μM of the SMARCA2 or BRD4 bromodomain protein in the running buffer. […] For ternary experiments, solutions were injected sequentially in single-cycle kinetic format without regeneration (contact time 60 s, flow rate 80 μL/min, dissociation time 300 s) using a stabilization period of 60 s and syringe wash (50% DMSO) between injections onto a low-density VBC-functionalized surface.
(§3) Raw sensorgrams were processed by performing double reference subtraction, solvent correction, and analysis was done using Biacore Insight Evaluation Software. Kinetic analysis was performed by fitting data to a 1:1 Langmuir interaction model and a steady-state affinity model was used to evaluate equilibrium binding affinity.

The target of series [2] is T2, VBC / BRD4^BD2 ternary complex (Homo sapiens, UniProt O60885+P40337).
T2 construct: VHL (54-213), ElonginB (17-112) ElonginC (1-104); ternary complex formation with both bromodomains, BRD4^BD1 and BRD4^BD2, independently; His6 (N); made in house
Kind of series: SPR ternary complex binding, VBC surface with preformed PROTAC/BRD4 BD2 complex. The following applies: for Kd: SPR, VHL, PROTAC, error SEM, N = 3, read-out: KLPT (ternary complex binding affinity). How it is done: as §1, §2, §3

The target of series [3] is T3, BRD4 (Homo sapiens, UniProt O60885).
T3 construct: endogenous in cells; host or cells: A375
Nature of the series: BRD4 degradation time course in A375 cells (MSD). The series is classed as cell-based. The following applies: single concentration at or near maximal activity. The source says: To measure the rate of protein degradation, we treated A375 cells with a single concentration of each PROTAC and measured the decrease in target abundance over time as shown in Figs. 4b and5b.
(§4) MSD electrochemiluminescence signals were subtracted by the average background signal from wells with lysis buffer alone. Normalized MSD values (POC) for individual compound treated wells were acquired by dividing background-subtracted assay signal by signal from vehicle control wells (cells + 0.1% DMSO) and multiplying by 100. This POC data was graphed using a nonlinear regression curve fit xy analysis and a log(inhibitor) vs response —variable slope (four parameter) model for dose response curves (Graphpad Prism 9, San Diego, CA, USA). To calculate area under the curve, all points on the curve were connected and vertical lines were drawn from each point down to y = 0, generating a series of trapezoids. The area of each trapezoid was determined using the equation A = (1/2)(h)(b1 + b2), where h = 1 (distance between points), b1 = POC of the first point and b2 = POC of the second point. The sum of all trapezoids provides an approximate area under the curve (AUC). For half-life (t1/2) determination in time course studies, a one-phase decay model was used for curve fitting and the time at which the curve crossed 50 POC was determined through interpolation (Graphpad Prism 9, San Diego, CA, USA).

For series [4], the target named is T3, BRD4. Kind of series: BRD4 degradation, MSD assay, dose response. The series is classed as cell-based. The arrangement: AUC (area under the dose-response curve): unit not given beside the values. The following applies: A375 cells; for Dmax: A-375, BRD4 degraded; for Dmax / DC50: MSD assay, 4 h timepoint; for AUC (area under the dose-response curve): BRD4 MSD assay, 4 h; for DC50: BRD4 degradation. How it is done:
A375 cells were treated with SMARCA2 or BRD4 degraders for 2 h (4 h for BRD4) and generated lysates. SMARCA2 or BRD4 protein was measured with a variation of a sandwich ELISA that was assembled from commercially available antibodies as well as reagents and instrumentation procured from Meso Scale Discovery (MSD). Degradation parameter, DC50, is not suitable for PROTACs that induce partial/incomplete DR curves at a fixed time point; maximum drop in target protein level (Dmax) >>0. Conversely, the area under the curve (AUC) can be calculated as a degradation activity parameter for any DR curve, and it encompasses both the degradation potency (i.e., DC50) and efficacy (i.e., Dmax) of PROTACs.
A 1:3 compound dose-response titration was diluted in growth media (1:20), added to appropriate wells of a cell culture plate (1:10) and then assay plates were incubated at 37 °C, 5% CO2.
Plates were washed with 300 µL per well MSD wash buffer (MSD R61TX-1) between each step. Following the last incubation, plates were washed with MSD wash buffer then 150 µL of MSD read buffer (MSD R92TC-2) was added to each well. Plates were immediately read on a MSD plate reader (MSD Sector Imager 6000).
as §4

The next series addresses T4, BRD4-NanoLuc (Homo sapiens, UniProt O60885).
T4 construct: expressed in transfected cells; host or cells: HEK293
Kind of series: NanoBRET target engagement assay, live and permeabilized HEK293 cells (BRD4). The series is classed as cell-based. The following applies: for Availability Index: RBA test cmpd / RBA of JQ1 benchmark, surrogate for permeability; for IC50: BRD4 NanoBRET TE. How it is done:
We employed a NanoBRET-based target engagement (TE) assay as reported earlier^7 for evaluating PROTACs relative permeability. In summary, live and permeabilized HEK293 cells with SMARCA2 or BRD4-NanoLuc were used for measuring IC50 values of different PROTACs. The relative shift in the IC50 was evaluated as relative binding affinity (RBA) by taking the ratio of IC50 values of live and permeabilized cells. Availability index (AI), which is a surrogate for permeability can be calculated by taking a ratio of RBA of compounds to permeable benchmark molecules.
Relative Binding Affinity (RBA) = Live-cell TE IC50 / Permeabilized-cell TE IC50
Availability Index (AI) = RBAtest cmpd / RBApermeable benchmark
Availability Index (AI) greater than one is indicative of reduced permeability compared to the benchmark.

The next series has as its target T5, BRD4^BD2 (Homo sapiens, UniProt O60885).
T5 construct: ternary complex formation with both bromodomains, BRD4^BD1 and BRD4^BD2, independently; made in house
Kind of series: SPR binary binding of PROTAC to BRD4^BD2-functionalized surface. The following applies: 1:1 Langmuir binding model, SD N=2.

In a further series the target is T6, VHL/EloB/EloC (VBC) (Homo sapiens, UniProt P40337).
T6 construct: VHL (54-213), ElonginB (17-112) ElonginC (1-104); made in house
Kind of series: SPR binary binding of PROTAC to VBC-functionalized surface. How it is done:
as §1
PROTACs (10 mM stocks in 100% DMSO) were diluted to 400 nM in a running buffer (20 mM Tris pH 7.5, 200 mM NaCl, 0.02% P20). This stock solution was then serially diluted in the running buffer containing final 2% DMSO. […] For SMARCA2 analysis, biotinylated proteins were introduced on a Series S streptavidin (SA) sensor chip at high-density (3000-4000 RU).
as §3

Where [5] appears, read: live HEK293 cells, read-out: Live-Cell TE.
Setting [6] is: permeabilized HEK293 cells, read-out: Permeabilized-Cell TE.
Setting [7] is: SPR, error SEM, N = 3, read-out: KLP (binary binding affinity between E3 ligase VHL and PROTAC).

With `Cc1ncsc1-c1ccc(CNC(=O)[C@@H]2C[C@@H](O)CN2C(=O)[C@@H](NC(=O)COCCOCc2cn(CCNC(=O)C[C@@H]3N=C(c4ccc(Cl)cc4)c4c(sc(C)c4C)-n4c(C)nnc43)nn2)C(C)(C)C)cc1` [Compound 13, (2S,4R)-1-((S)-2-(2-(2-((1-(2-(2-((S)-4-(4-chlorophenyl)-2,3,9-trimethyl-6H-thieno[3,2-f][1,2,4]triazolo[4,3-a][1,4]diazepin-6-yl)acetamido)ethyl)-1H-1,2,3-triazol-4-yl)methoxy)ethoxy)acetamido)-3,3-dimethylbutanoyl)-4-hydroxy-N-(4-(4-methylthiazol-5-yl)benzyl)pyrrolidine-2-carboxamide], the “α (cooperativity, KLP/KLPT)” value is 0.6 in series [1] and 1.7 in series [2]. The Kd in series [1] was determined as 29 ± 3 nM; in series [2], 10 ± 2 nM; at BRD4^BD2 it was 11.7 ± 0.9 nM; on VHL/EloB/EloC (VBC), 17 ± 2 nM. Moreover, the “Initial Degradation Rate” value on BRD4 [3] is recorded as 0.76 %/min. At BRD4 [4], the Dmax was determined as 78%. Also, the “AUC (area under the dose-response curve)” value at BRD4 [4] turned out to be 309. The DC50 at BRD4 [4] came out at 726 nM. The “Availability Index” value on BRD4-NanoLuc stood at 73.87. For the same compound, the IC50 on BRD4-NanoLuc (setting [5]) turned out to be 7270 nM; at BRD4-NanoLuc (setting [6]), 100 nM.
Take `Cc1ncsc1-c1ccc(CNC(=O)[C@@H]2C[C@@H](O)CN2C(=O)[C@@H](NC(=O)COCCOCCOCc2cn(CCNC(=O)C[C@@H]3N=C(c4ccc(Cl)cc4)c4c(sc(C)c4C)-n4c(C)nnc43)nn2)C(C)(C)C)cc1` [Compound 14, (2S,4R)-1-((S)-12-(tert-butyl)-1-(1-(2-(2-((S)-4-(4-chlorophenyl)-2,3,9-trimethyl-6H-thieno[3,2-f][1,2,4]triazolo[4,3-a][1,4]diazepin-6-yl)acetamido)ethyl)-1H-1,2,3-triazol-4-yl)-10-oxo-2,5,8-trioxa-11-azatridecan-13-oyl)-4-hydroxy-N-(4-(4-methylthiazol-5-yl)benzyl)pyrrolidine-2-carboxamide]: the “α (cooperativity, KLP/KLPT)” value in series [1] is reported as 0.8; in series [2], 1. The Kd was found to be 33 ± 4 nM in series [1], 26.5 ± 4 nM in series [2], 9.6 ± 0.9 nM at BRD4^BD2 and 26 ± 5 nM on VHL/EloB/EloC (VBC) (setting [7]). The “Initial Degradation Rate” value at BRD4 [3] amounted to 0.46 %/min. The Dmax at BRD4 [4] worked out at 69%. The “AUC (area under the dose-response curve)” value on BRD4 [4] is 460. Moreover, at BRD4 [4], half-maximal degradation (DC50) was put at 2260 nM. In addition, the “Availability Index” value on BRD4-NanoLuc was determined as 126.63. Besides, the IC50 on BRD4-NanoLuc (setting [5]) worked out at 12600 nM; on BRD4-NanoLuc (setting [6]), 100 nM.
As for `Cc1ncsc1-c1ccc(CNC(=O)[C@@H]2C[C@@H](O)CN2C(=O)[C@@H](NC(=O)COCCOCCOCCOCc2cn(CCNC(=O)C[C@@H]3N=C(c4ccc(Cl)cc4)c4c(sc(C)c4C)-n4c(C)nnc43)nn2)C(C)(C)C)cc1` [Compound 15, (2S,4R)-1-((S)-15-(tert-butyl)-1-(1-(2-(2-((S)-4-(4-chlorophenyl)-2,3,9-trimethyl-6H-thieno[3,2-f][1,2,4]triazolo[4,3-a][1,4]diazepin-6-yl)acetamido)ethyl)-1H-1,2,3-triazol-4-yl)-13-oxo-2,5,8,11-tetraoxa-14-azahexadecan-16-oyl)-4-hydroxy-N-(4-(4-methylthiazol-5-yl)benzyl)pyrrolidine-2-carboxamide], the “α (cooperativity, KLP/KLPT)” value in series [1] turned out to be 1.2; in series [2], 0.8. Also, the Kd stood at 26.5 ± 4 nM in series [1], 39 ± 5 nM in series [2], 16.2 ± 2.6 nM at BRD4^BD2 and 31 ± 4 nM on VHL/EloB/EloC (VBC) (setting [7]). For the same compound, the “Initial Degradation Rate” value on BRD4 [3] amounted to 0.21 %/min. The “AUC (area under the dose-response curve)” value on BRD4 [4] is given as 733. The compound further came in with a DC50 on BRD4 [4] of over 10000 nM. For the same compound, the “Availability Index” value at BRD4-NanoLuc was 34.23. The IC50 came out at 3920 nM on BRD4-NanoLuc (setting [5]) and 110 nM on BRD4-NanoLuc (setting [6]).
As for `Cc1ncsc1-c1ccc(CNC(=O)[C@@H]2C[C@@H](O)CN2C(=O)[C@@H](NC(=O)COCCOCCOCCOCCOCc2cn(CCNC(=O)C[C@@H]3N=C(c4ccc(Cl)cc4)c4c(sc(C)c4C)-n4c(C)nnc43)nn2)C(C)(C)C)cc1` [Compound 16, (2S,4R)-1-((S)-18-(tert-butyl)-1-(1-(2-(2-((S)-4-(4-chlorophenyl)-2,3,9-trimethyl-6H-thieno[3,2-f][1,2,4]triazolo[4,3-a][1,4]diazepin-6-yl)acetamido)ethyl)-1H-1,2,3-triazol-4-yl)-16-oxo-2,5,8,11,14-pentaoxa-17-azanonadecan-19-oyl)-4-hydroxy-N-(4-(4-methylthiazol-5-yl)benzyl)pyrrolidine-2-carboxamide], the “α (cooperativity, KLP/KLPT)” value in series [1] is listed as 1; in series [2] it was 0.7. In addition, the Kd in series [1] came out at 33 ± 5 nM; in series [2], 49 ± 6 nM; on BRD4^BD2, 15.8 ± 2 nM; at VHL/EloB/EloC (VBC) it was 33 ± 5 nM. In addition, the “Initial Degradation Rate” value on BRD4 [3] stood at 0.08 %/min. Further, the “AUC (area under the dose-response curve)” value on BRD4 [4] was found to be 900. This compound also had a DC50 at BRD4 [4] of over 10000 nM. Besides, on BRD4-NanoLuc, the “Availability Index” value came out at 164.81. Besides, the IC50 turned out to be 18000 nM on BRD4-NanoLuc (setting [5]) and 110 nM on BRD4-NanoLuc (setting [6]).

The Dmax is the greatest extent of degradation seen. By DC50 is commonly meant the concentration at which degradation of the target reaches its halfway point.

The values are drawn from paper PMC10344917, “Affinity and cooperativity modulate ternary complex formation to drive targeted protein degradation” (Nature Communications, 2023).
